Molecular target: CYP46A1 (Homo sapiens, UniProt Q9Y6A2)
Assay: CYP46A1 Enzyme Assay 2 (testosterone substrate, HPLC-MS)
Format: biochemical
Details: read-out: IC50 (CYP46A1 inhibitory activity)
Method: Briefly, in a 384-well plate format, 10 μL per well of an enzyme-substrate mixture of CYP46A1 (5 μM final concentration) and Testosterone ([…] final concentration) were dispensed to wells containing test compound. For CYP46A1 titration, 5 μL per well of serially diluted CYP46A1 (concentrations including 10 μM, 5 μM, and 2.5 μM) and Testosterone (concentration of […]) were dispensed. For Testosterone titration, 5 μL per well of serially diluted Testosterone (concentrations including 10 μM, 5 μM, and 2.5 μM) and CYP46A1 (concentration of 5 μM) were dispensed. The plates were centrifuged at 1000 rpm for 30 seconds, and then sealed and incubated at 37° C. for 30 minutes. The plate was removed from the incubator, and then 10 μL per well of NADPH-generating system were dispensed to initiate the reaction. The plates were incubated at 37° C. for 15 minutes, added with 80 μL per well of 100% methanol consisting 1 ng/ml diclofenac as internal standard, and then transferred for HPLC-MS.

Chain of CYP46A1 (Q9Y6A2 whole entry): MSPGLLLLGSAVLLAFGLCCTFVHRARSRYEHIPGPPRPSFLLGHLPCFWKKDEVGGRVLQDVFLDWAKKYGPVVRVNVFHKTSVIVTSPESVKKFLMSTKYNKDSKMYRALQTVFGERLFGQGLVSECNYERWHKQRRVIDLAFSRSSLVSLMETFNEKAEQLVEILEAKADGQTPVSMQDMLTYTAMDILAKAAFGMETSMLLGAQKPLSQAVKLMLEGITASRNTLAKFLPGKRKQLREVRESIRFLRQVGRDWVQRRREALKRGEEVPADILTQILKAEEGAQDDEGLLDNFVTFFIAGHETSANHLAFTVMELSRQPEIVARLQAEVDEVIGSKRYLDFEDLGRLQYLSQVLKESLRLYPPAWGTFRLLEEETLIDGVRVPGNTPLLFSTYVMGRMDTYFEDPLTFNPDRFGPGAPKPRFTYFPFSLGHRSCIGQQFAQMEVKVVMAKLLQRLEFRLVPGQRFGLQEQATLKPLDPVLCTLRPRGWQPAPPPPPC

Structure (SMILES)	IC50 [nM]
N#CC1(Cc2ccc(C3CC3)nc2)CCN(C(=O)c2cccnc2-c2ccncn2)CC1 [Compound A211, 4-((6-cyclopropylpyridin-3-yl)methyl)-1-(2-(pyrimidin-4-yl)nicotinoyl)piperidine-4-carbonitrile]	< 100
N#Cc1ccc(CC2(C#N)CCN(C(=O)c3cccnc3-c3ccncc3)CC2)cc1 [Compound A27, 1-([2,4′-bipyridine]-3-carbonyl)-4-(4-cyanobenzyl)piperidine-4-carbonitrile]	< 100
N#CC1(Cc2ccc(C(F)(F)F)cn2)CCN(C(=O)c2cccnc2-c2ccncn2)CC1 [Compound A228, 1-(2-(pyrimidin-4-yl)nicotinoyl)-4-((5-(trifluoromethyl)pyridin-2-yl)methyl)piperidine-4-carbonitrile]	100 to 1000
N#CC1(Cc2ccc(OC(F)(F)F)cc2)CCN(C(=O)c2cccnc2-c2ccncc2)CC1 [Compound A10, 1-([2,4′-bipyridine]-3-carbonyl)-4-(4-(trifluoromethoxy)benzyl)piperidine-4-carbonitrile]	< 100
N#CC1(Cc2ccc(C(F)(F)F)cc2)CCN(C(=O)c2cccnc2-c2ccncn2)CC1 [Compound A40, 1-(2-(pyrimidin-4-yl)nicotinoyl)-4-(4-(trifluoromethyl)benzyl)piperidine-4-carbonitrile]	< 100
N#CC1(Cc2cccc(C3CC3)c2)CCN(C(=O)c2cccnc2-c2ccncn2)CC1 [Compound A218, 4-(3-cyclopropylbenzyl)-1-(2-(pyrimidin-4-yl)nicotinoyl)piperidine-4-carbonitrile]	< 100
N#CC1(Cc2ccc(F)cc2)CCN(C(=O)c2ccc(F)cc2-c2ccncn2)CC1 [Compound A220, 1-(4-fluoro-2-(pyrimidin-4-yl)benzoyl)-4-(4-fluorobenzyl)piperidine-4-carbonitrile]	< 100
N#CC1(Cc2ccc(F)c(F)c2)CCN(C(=O)c2cccnc2-c2ccncn2)CC1 [Compound A206, 4-(3,4-difluorobenzyl)-1-(2-(pyrimidin-4-yl)nicotinoyl)piperidine-4-carbonitrile]	< 100
C[C@H](c1ccc(F)cc1F)C1(C#N)CCN(C(=O)c2cccnc2-c2ccncn2)CC1 [Compound A241, (S)-4-(1-(2,4-difluorophenyl)ethyl)-1-(2-(pyrimidin-4-yl)nicotinoyl)piperidine-4-carbonitrile]	< 100
N#CC1(Cc2ccc(C3CC3)cn2)CCN(C(=O)c2cccnc2-c2ccncn2)CC1 [Compound A226, 4-((5-cyclopropylpyridin-2-yl)methyl)-1-(2-(pyrimidin-4-yl)nicotinoyl)piperidine-4-carbonitrile]	100 to 1000
N#CC1(Cc2cccnc2)CCN(C(=O)c2cccnc2-c2ccncc2)CC1 [Compound A72, 1-{[2,4′-bipyridine]-3-carbonyl}-4-[(pyridin-3-yl)methyl]piperidine-4-carbonitrile]	100 to 1000
N#CC1(Cc2cccc(C(F)(F)F)c2F)CCN(C(=O)c2cccnc2-c2ccncn2)CC1 [Compound A265, 4-(2-fluoro-3-(trifluoromethyl)benzyl)-1-(2-(pyrimidin-4-yl)nicotinoyl)piperidine-4-carbonitrile]	< 100
N#CC1(Cc2ccc(F)cc2F)CCN(C(=O)c2cccnc2-c2ccncc2)CC1 [Compound A284, 1-([2,4′-bipyridine]-3-carbonyl)-4-(2,4-difluorobenzyl)piperidine-4-carbonitrile]	< 100
N#CC1(CC2CC2)CCN(C(=O)c2cccnc2-c2ccncn2)CC1 [Compound A58, 4-(cyclopropylmethyl)-1-(2-(pyrimidin-4-yl)nicotinoyl)piperidine-4-carbonitrile]	100 to 1000
N#CC1(Cc2ccc(C(F)(F)F)cc2F)CCN(C(=O)c2cccnc2-c2ccncn2)CC1 [Compound A240, 4-(2-fluoro-4-(trifluoromethyl)benzyl)-1-(2-(pyrimidin-4-yl)nicotinoyl)piperidine-4-carbonitrile]	< 100
CC(c1ccc(C(F)(F)F)cc1)C1(C#N)CCN(C(=O)c2cccnc2-c2ccncc2)CC1 (stereo in doubt) [Compound A268, (R)-1-([2,4′-bipyridine]-3-carbonyl)-4-(1-(4-(trifluoromethyl)phenyl)ethyl)piperidine-4-carbonitrile]	< 100
N#CC1(Cc2ccccc2Cl)CCN(C(=O)c2cccnc2-c2ccncc2)CC1 [Compound A21, 1-([2,4′-bipyridine]-3-carbonyl)-4-(2-chlorobenzyl)piperidine-4-carbonitrile]	< 100
N#CC1(Cc2ccccc2)CCN(C(=O)c2cccnc2-c2ccncn2)CC1 [Compound A31, 4-benzyl-1-(2-(pyrimidin-4-yl)nicotinoyl)piperidine-4-carbonitrile]	< 100
N#CC1(Cc2ccc(F)cc2)CCN(C(=O)c2cccnc2-c2cncnc2)CC1 [Compound A66, 4-(4-fluorobenzyl)-1-(2-(pyrimidin-5-yl)nicotinoyl)piperidine-4-carbonitrile]	100 to 1000

Structure (SMILES)	IC50 [nM]
N#CC1(Cc2ccc(F)cc2)CCN(C(=O)c2cc(C(F)(F)F)ccc2-c2ccncn2)CC1 [Compound A227, 4-(4-fluorobenzyl)-1-(2-(pyrimidin-4-yl)-5-(trifluoromethyl)benzoyl)piperidine-4-carbonitrile]	< 100
N#C[C@@]1(Cc2ccc(F)cc2)CCN(C(=O)c2cccnc2-c2ccncn2)C1 [Compound A236, (S)-3-(4-fluorobenzyl)-1-(2-(pyrimidin-4-yl)nicotinoyl)pyrrolidine-3-carbonitrile]	> 1000
N#CC1(Cc2ccc(F)cc2)CCN(C(=O)c2ccccc2-c2ccncn2)CC1 [Compound A229, 4-(4-fluorobenzyl)-1-(2-(pyrimidin-4-yl)benzoyl)piperidine-4-carbonitrile]	< 100
N#CC1(CCCc2ccccc2)CCN(C(=O)c2cccnc2-c2ccncc2)CC1 [Compound A71, 1-{[2,4′-bipyridine]-3-carbonyl}-4-(3-phenylpropyl)piperidine-4-carbonitrile]	< 100
CC(c1cc(F)cc(F)c1)C1(C#N)CCN(C(=O)c2cccnc2-c2ccncc2)CC1 (stereo in doubt) [Compound A260, (R)-1-([2,4′-bipyridine]-3-carbonyl)-4-(1-(3,5-difluorophenyl)ethyl)piperidine-4-carbonitrile]	< 100
N#CC1(Cc2ccccc2C(F)(F)F)CCN(C(=O)c2cccnc2-c2ccncc2)CC1 [Compound A275, 1-([2,4′-bipyridine]-3-carbonyl)-4-(2-(trifluoromethyl)benzyl)piperidine-4-carbonitrile]	< 100
C[C@@H](c1ccc(F)cc1F)C1(C#N)CCN(C(=O)c2cccnc2-c2ccncc2)CC1 [Compound A238, (R)-1-([2,4′-bipyridine]-3-carbonyl)-4-(1-(2,4-difluorophenyl)ethyl)piperidine-4-carbonitrile]	< 100
N#CC1(Cc2cccc(Cl)c2)CCN(C(=O)c2cccnc2-c2ccncn2)CC1 [Compound A210, 4-(3-chlorobenzyl)-1-(2-(pyrimidin-4-yl)nicotinoyl)piperidine-4-carbonitrile]	< 100
N#CC1(Cc2ccncc2)CCN(C(=O)c2cccnc2-c2ccncc2)CC1 [Compound A65, 1-([2,4′-Bipyridine]-3-carbonyl)-4-(pyridin-4-ylmethyl)piperidine-4-carbonitrile]	100 to 1000
N#CC1(Cc2cccc(F)c2)CCN(C(=O)c2cccnc2-c2ccncc2)CC1 [Compound A13, 1-{[2,4′-bipyridine]-3-carbonyl}-4-[(3-fluorophenyl)methyl]piperidine-4-carbonitrile]	< 100
N#CC1(Cc2cccc(Cl)c2)CCN(C(=O)c2cccnc2-c2ccncc2)CC1 [Compound A22]	< 100
C[C@H](c1ccc(F)cc1)C1(C#N)CCN(C(=O)c2cccnc2-c2ccncn2)CC1 [Compound A45, (R)-4-(1-(4-fluorophenyl)ethyl)-1-(2-(pyrimidin-4-yl)nicotinoyl)piperidine-4-carbonitrile]	< 100
N#CC1(Cc2ccc(F)cc2)CCN(C(=O)c2cccnc2-c2ncncc2F)CC1 [Compound A233, 4-(4-fluorobenzyl)-1-(2-(5-fluoropyrimidin-4-yl)nicotinoyl)piperidine-4-carbonitrile]	> 1000
C[C@H](c1ccc(C(F)(F)F)cc1F)C1(C#N)CCN(C(=O)c2cccnc2-c2ccncn2)CC1 [Compound A287, (S)-4-(1-(2-fluoro-4-(trifluoromethyl)phenyl)ethyl)-1-(2-(pyrimidin-4-yl)nicotinoyl)piperidine-4-carbonitrile]	< 100
N#CC1(Cc2c(F)cccc2F)CCN(C(=O)c2cccnc2-c2ccncn2)CC1 [Compound A207, 4-(2,6-difluorobenzyl)-1-(2-(pyrimidin-4-yl)nicotinoyl)piperidine-4-carbonitrile]	< 100
CC(c1c(F)cc(F)cc1F)C1(C#N)CCN(C(=O)c2cccnc2-c2ccncn2)CC1 (stereo in doubt) [Compound A271, (R)-1-(2-(pyrimidin-4-yl)nicotinoyl)-4-(1-(2,4,6-trifluorophenyl)ethyl)piperidine-4-carbonitrile]	< 100
CCc1ccc(CC2(C#N)CCN(C(=O)c3cccnc3-c3ccncn3)CC2)cc1 [Compound A208, 4-(4-ethylbenzyl)-1-(2-(pyrimidin-4-yl)nicotinoyl)piperidine-4-carbonitrile]	< 100
N#CC1(Cc2ccc(F)cc2)CCN(C(=O)c2cc(Cl)ccc2-c2ccncn2)CC1 [Compound A234, 1-(5-chloro-2-(pyrimidin-4-yl)benzoyl)-4-(4-fluorobenzyl)piperidine-4-carbonitrile]	< 100

From patent US20220332699A1 (SAGE THERAPEUTICS, INC., priority 2019, published 2022)
